How the values were obtained:
[1] = system: male domestic pigs; test: Example 3: dobutamine vs levosimendan in the porcine model of cardiac arrest and cardiac resuscitation; format: in vivo, pig
Experimental: Experimental Preparation: The experiments were performed in the porcine model of cardiac arrest and cardiac resuscitation which has been extensively exercised. (21,22). […] Anesthesia was initiated by intramuscular injection of ketamine (20 mg kg^−1) and was completed by ear vein injection of sodium pentobarbital (30 mg kg^−1). Additional 8 mg kg^−1 doses of sodium pentobarbital were injected to maintain anesthesia at intervals of one hour. A cuffed endotracheal tube was advanced into the trachea. Animals were mechanically ventilated with a volume of 15 mL kg^−1, peak airway flow of 40 L min^−1, and FiO2 of 0.2 with the aid of a volume-controlled ventilator (Model MA-1, Puritan-Bennett, Carlsbad, Calif.). End-tidal PCO2 (PETCO2) was monitored with an infrared analyzer (Model 01R-7101A, Nihon Kohden Corp, Tokyo, Japan). Respiratory frequency was adjusted to maintain PETCO2 between 35 and 40 mmHg. Blood temperature was maintained at 37±0.5° C. with the aid of infrared heating lamps, as required.
For the measurement of left ventricular functions, a 5.5/7.5 MHz biplane with pulse-wave Doppler transesophageal echocardiographic tranducer with 4-way flexure (Model 21363A, Hewlett-Packard Co. Medical Products Group, Andover, Mass.) was advanced from the incisor teeth into the esophagus for a distance of approximately 40 cm. For the measurement of aortic pressure, a fluid filled catheter was advanced from the surgically exposed left femoral artery into the thoracic aorta. For measurements of right atrial and pulmonary arterial pressures, blood temperature and cardiac output, a 7-French, pentalumen, thermodilution-tipped catheter was advanced from the surgically exposed left femoral vein and flow-directed into the pulmonary artery. For inducing VF, a 5-French pacing catheter (EP Techologies, Inc., Mountain View, Calif.) was advanced from the surgically exposed right cephalic vein into the right ventricle. […] This catheter was then looped laterally and advanced inferiorly for a distance of 5 cm into the great cardiac vein for sampling of coronary venous blood. The electrocardiographic (EKG) lead II was continuously recorded.
Experimental procedure: A total 15 animals were investigated. […] Cardiac arrest was induced with 1 to 2 mA AC delivered to the endocardium of the right ventricle. Mechanical ventilation was discontinued after onset of VF. At the end of a 7-minute interval of untreated VF, precordial compression (PC) was started with a pneumatic piston-driven chest compressor (Thumper, Model 1000, Michigan Instruments, Grand Rapids, Mich.). Coincident with the start of PC, the animal was mechanically ventilated with a tidal volume of […] and FiO2 of 1.0. […] The compression force was adjusted to decrease the anterior-posterior diameter of the chest by 25%. After 5 minutes of PC, defibrillation was attempted with a 150 J biphasic waveform shock delivered between the right infraclavicular area and the cardiac apex. If an organized cardiac rhythm with mean aortic pressure of more than 60 mm Hg persisted for an interval of 5 minutes or more, the animal was regarded as successfully resuscitated. At 10 minutes after restoration of spontaneous circulation (ROSC), one of the three interventions was begun. […] Levosimendan diluted in physiological salt solution was administered in a loading dose of 20 μg kg^−1, infused over 10 minutes, followed by infusion of 0.4 μg kg^−1 min^−1 also in physiologic salt solution for a total duration of 230 minutes.

[2] = system: Male Sprague-Dawley rats; test: Example 2: dobutamine vs levosimendan for post-resuscitation myocardial failure, 8 min untreated VF + 6 min precordial compression; format: in vivo, rat
Experimental: The animals were anesthetized following intraperitoneal injection of 45 mg kg^−1 pentobarbital. […] No anesthetic agent was administrated during the 30 minute interval prior to inducing cardiac arrest.
Pressures were measured with a high sensitivity pressure transducer (Model 42584-01; Abbott Critical Care System, North Chicago, Ill.). The optimally damped frequency response of the system was 22 Hz. […] Guided by pressure monitoring, the catheter was slowly withdrawn into the right atrium. Right atrial pressure was measured with reference to the mid-chest with another high sensitivity pressure transducer (Abbott model 42584-01). This catheter also served as an injection site for the thermal tracer. A 4 F polyethylene catheter (model C-PMS401J; Cook Critical Care, Bloomington, Ind.) was advanced through the right external jugular vein into the right atrium. A precurved guide wire supplied with the catheter was then advanced through the catheter into the right ventricle until an endocardial electrogram was observed. Another 23-gauge polyethylene catheter (PE 50) was advanced through the left femoral artery into the abdominal aorta for measurement of aortic pressure with the same Abbott high sensitivity transducer and also for sampling arterial blood. […] The thermocouple provided for measurements of blood temperature and thermodilution cardiac output. […] An additional PE 50 catheter was advanced into right femoral vein for drug infusion. EKG lead II was continuously recorded.
Experimental Procedure: A total of 15 animals were investigated. The investigators were blinded to the intervention until immediately prior to inducing VF, at which time the principal investigator opened a sealed envelope for assignment to one of three groups: (1) levosimendan (2) dobutamine or (3) saline placebo. This allowed time for preparation of a fresh dilution of the selected drug. […] Current flow was continued for 3 minutes to prevent spontaneous defibrillation as previously described (Von Planta I, Weil MH. Cardiopulmonary resuscitation in the rat. J Appl Physiol. 1988;65(6):2641-2647). Ventilation was discontinued after onset of VF. Precordial compression was begun with a pneumatically driven mechanical chest compressor after 8 minutes of untreated VF and continued for 6 minutes. These methods have been extensively exercised and have been well-documented (see Von Plata I (supra)) and Sun SJ, Weil MH, Tang W, et al. Combined effects of buffer and adrenergic agent on postresuscitation myocardial function. J Pharm Exp Ther. 1999;291 :773-777). Coincident with the start of precordial compression, the animals were mechanically ventilated. Tidal volume was established at 6.5 ml per kg animal weight, a frequency of 100 min^−1, and on a FiO2 of 1.0.

[3] = 4-hour interval after treatment

C[C@@H]1CC(=O)NN=C1c1ccc(NN=C(C#N)C#N)cc1 [Levosimendan]
mean pulmonary artery pressure [1, 3]: Significantly lower
right atrial (filling) pressure [1, 3]: Significantly lower
heart rate ([1]; among the three groups): did not differ
neurological alertness scores ([1]; at 24 hours): significantly better
arterial pressure ([1]; between levosimendan and dobutamine): no differences in arterial pressure
coronary arterial-venous oxygen differences ([1]; in comparison to dobutamine (FIG. 19)): numerically smaller
EF ([1]; in comparison to dobutamine, persisted at 72 hours (FIG. 17)): significantly greater
FAC ([1]; in comparison to dobutamine, persisted at 72 hours (FIG. 18)): significantly greater
cardiac output ([1]; vs saline placebo (FIG. 16)): Significantly greater cardiac output
mean arterial pressure (MAP) ([2]; between the three groups): no significant differences
duration of survival ([2]; observed over 72 hours, least with saline placebo (FIG. 15)): maximal
left ventricular diastolic (filling) pressures ([2]; post-resuscitation): significantly lesser increases
cardiac index ([2]; post-resuscitation (FIG. 13)): significant increases in cardiac index
dP/dt40 ([2]; vs saline placebo (FIG. 14)): Significantly greater
−dP/dt ([2]; vs saline placebo (FIG. 14)): Significantly greater

Source: patent US20060293395A1, “Methods for treating a mammal before, during and after cardiac arrest” (priority 2004, published 2006)
